Read-outs that look alike come from different tables or passages of the source.
Experiments:
[1] = system: ubiquitinated proteins in T. cruzi epimastigotes; experiment: Accumulation of ubiquitinated proteins in treated epimastigotes (LC-MS/MS); assay type: cell-based, Trypanosoma cruzi; conditions: epimastigotes pretreated 8 h at 3× EC50 (methods: 8× EC50); one biological replicate
Description: In cells where the function of the proteasome has been compromised, there is a concomitant build-up of ubiquitinated proteins earmarked for degradation. […] Control cultures were treated for the same period of time in the presence of dimethyl sulfoxide (DMSO). Enrichment of ubiquitinated proteins was achieved by immunoprecipitation using magnetic beads conjugated to an antibody specific for the remnant of ubiquitinated lysines following digestion with trypsin and/or LysC. We used liquid chromatography-tandem mass spectrometry (LC-MS/MS) to calculate the ubiquitination ratio of each sample by dividing the reporter intensity of ubiquitinated proteins by the reporter intensity of total protein (see Table S8). As expected, the accumulation of ubiquitinylated proteins was highest in epimastigotes treated with bortezomib (2.7-fold higher than in the DMSO-treated control), which is known to inhibit all three catalytic activities of the proteasome (Fig. 3). […] Similarly, ubiquitinated proteins accumulated to levels 1.9-fold higher in compound 1-treated parasites compared to those recovered from DMSO-treated control cells.
Controls were incubated in the presence of diluent (DMSO). Cells were harvested by centrifugation (1,912 × g, 15 min, 4°C) and washed with ice-cold PBS (1,912 × g, 5 min, 4°C); finally, the cell pellets were resuspended in 1.5 ml of ice-cold lysis buffer (1 mM EDTA, 1 mM DTT, 100 μM TLCK, and 1× Roche EDTA-free cOmplete protease inhibitor cocktail in 50 mM potassium phosphate buffer [pH 7.4]). Cell suspensions were submitted to three freeze-thaw cycles in a dry ice/ethanol bath to biologically inactivate the parasites and then lysed using a OneShot cell disruptor (Constant Systems) at 30 kpsi.
Cell lysates were centrifuged (100,000 × g, 20 min, 4°C), supernatants were collected, and the protein concentrations were determined by using a standard Bio-Rad protein assay. […]

[2] = system: T. cruzi epimastigotes; experiment: T. cruzi epimastigote drug sensitivity assay (resazurin); assay type: cell-based, Trypanosoma cruzi; conditions: for EC50: Trypanosoma cruzi; for susceptibility of CRISPR-edited epimastigotes: β4 F24L and I29M, at all of the concentrations tested
Description: To examine the effects of test compounds on the growth of T. cruzi epimastigotes, mid-log-phase parasites were seeded into 96-well plates at a cell density of 5 × 10^5 cells ml^−1. Cells were exposed to test compounds over a range of concentrations (2-fold serial dilutions). Cells were incubated for 4 days, and then 20 μl of 2.5 mM resazurin was added to each well, before measuring the fluorescence (excitation, 528 nm; emission, 590 nm), following a further 24 h of incubation. […] In this equation, [I] represents the inhibitor concentration, and m is the slope factor. Experiments were repeated at least two times, and the data are presented as means plus the standard deviations.

[3] = system: T. cruzi amastigotes within Vero cells; experiment: Drug sensitivity assay against T. cruzi-infected Vero cells (intracellular amastigotes); assay type: cell-based, Trypanosoma cruzi; conditions: for EC50: Trypanosoma cruzi, Vero
Description: The clonal Leishmania donovani cell line LdBOB (derived from MHOM/SD/62/1S-CL2D) was grown as either promastigotes or axenic amastigotes in media specific for each developmental stage, as previously described ([32]). T. cruzi epimastigotes from the Silvio strain (MHOM/BR/78/Silvio; clone X10/7A [33]) were grown at 28°C in RTH/FBS (RPMI 1640 medium supplemented with Trypticase, hemin, HEPES, and 10% heat-inactivated fetal calf serum (FCS) [Fisher Scientific]) ([34]). Bloodstream form T. brucei “single marker” S427 (T7RPOL TETR NEO) were cultured in the presence of G418 (15 μg ml^−1) at 37°C in HMI9-T media in the presence of 5% CO2. HepG2 cells (ECACC 85011430) were obtained from European Collection of Authenticated Cell Culture (ECACC). Cells were maintained in full growth medium (minimal essential medium [MEM] with GlutaMAX (Thermo Fisher), supplemented with 1% MEM nonessential amino acids (Sigma) and 10% heat-inactivated FBS and cultured at 37°C in the presence of 5% CO2. Cells were passaged twice weekly by detaching adherent cells with 0.05% trypsin/EDTA (Sigma) and diluted into fresh media. Cells were never grown beyond 80% confluence. Vero cells (African green monkey kidney cells; ECCAC 84113001) were maintained at 37°C, 5% CO2 in Dulbecco modified Eagle medium (DMEM; Lonza) supplemented with 10% FCS and subcultured every 2 days. T. cruzi metacyclic trypomastigotes were obtained from late-log-phase epimastigote cultures (initial inoculum, 10^6 ml^−1) after ca. 7 to 10 days at 28°C in RTH/FBS. Trypomastigote-rich cultures were incubated with Vero cells overnight at 37°C and 5% CO2 in DMEM/10% FCS. The following day, extracellular parasites were removed by washing the Vero cell monolayer three times. Infected monolayers were maintained at 37°C and in 5% CO2, DMEM/10% FCS was replaced every 48 h until the trypomastigotes reemerged from the Vero cells ([9]).
Drug sensitivity assays against T. cruzi-infected Vero cells were carried out as previously described ([37]); however, in this instance, assays were carried out in 96-well plates. Data were processed using GRAFIT (Erithacus software) and fitted to a two-parameter equation, as described above.

[4] = system: T. cruzi; conditions: cited from earlier work
[5] = system: Chagas' disease; conditions: cited from earlier work
[6] = read-out: Mean EC50 ± SD, cell line RES II (compound 1-resistant, β5 D225N)
[7] = read-out: Mean EC50 ± SD, cell line RES IV (compound 1-resistant, no proteasome mutation)
[8] = cell line Wild type, read-out: Mean EC50 ± SD
[9] = read-out: Mean EC50 ± SD, cell line RES I (compound 1-resistant, β5 D225N)
[10] = read-out: Mean EC50 ± SD, cell line RES III (compound 1-resistant, β5 D225N)
[11] = read-out: Mean EC50 ± SD, cell line RES V (compound 1-resistant, β4 I27T)
[12] = read-out: Mean EC50 ± SD, cell line Res I-β5 OE (β5 WT overexpressed in RES I)
[13] = read-out: Mean EC50 ± SD, cell line β4 F24L/I29M (CRISPR-edited)
[14] = read-out: Mean EC50 ± SD, cell line β5 D225N-OE (overexpressing mutated β5)
[15] = in Vero cells, cell line RES 1, read-out: EC50 values
[16] = in Vero cells, cell line RES 5, read-out: EC50 values
[17] = in Vero cells, cell line Wild-type, read-out: EC50 values
[18] = read-out: EC50 values, in Vero cells, cell line β4 F24L/I29M

SMILES	accumulation of ubiquitinated proteins versus DMSO-treated control [1] [fold]	EC50 [2, 6] [µM]	EC50 [2, 7] [µM]	fold change versus the WT ([2]; cell line RES I) [fold]	fold change versus the WT ([2]; cell line RES II) [fold]	fold change versus the WT ([2]; cell line RES III) [fold]	fold change versus the WT ([2]; cell line RES IV) [fold]	fold change versus the WT ([2]; cell line RES V) [fold]	fold change versus the WT ([2]; cell line Res I-β5 OE) [fold]	fold change versus the WT ([2]; cell line β4 F24L/I29M) [fold]	fold change versus the WT ([2]; cell line β5 D225N-OE) [fold]	EC50 [2, 8] [µM]	EC50 [2, 9] [µM]	EC50 [2, 10] [µM]	EC50 [2, 11] [µM]	EC50 [2, 12] [µM]	EC50 [2, 13] [µM]	EC50 [2, 14] [µM]	susceptibility of CRISPR-edited epimastigotes [2]	EC50 [3, 15] [µM]	also measured
CC(C)C[C@H](NC(=O)[C@H](Cc1ccccc1)NC(=O)c1cnccn1)B(O)O [Bortezomib, bortezomib]	2.7	0.3 ± 0.01	0.6 ± 0.05	1	1	1	2.5	1	1	1	1	–	–	–	–	–	–	–	–	–	EC50 ([2]; read-out: Mean EC50 ± SD, cell line Wild type): 0.2 ± 0.004 µM; cross-resistance against RES I to V clones ([2]; compound 1-resistant clones RES I to V): no evidence of cross-resistance
O=C(Nc1ccc(F)c(-c2cn3nc(-c4ccccc4)cnc3n2)c1)N1CCCC1 [Compound 2]	–	5 ± 0.2	0.1 ± 0.01	100	125	125	2.5	20	6.5	> 250	58	0.04 ± 0.001	4 ± 0.08	5 ± 0.4	0.8 ± 0.03	0.3 ± 0.01	> 10	2 ± 0.1	refractory	–	–
CSc1ccc(OCc2ncc([N+](=O)[O-])n2C)cc1 [Fexinidazole, fexinidazole]	–	–	–	–	–	–	–	–	–	–	–	–	–	–	–	–	–	–	–	8 ± 1	EC50 ([3]; in Vero cells, cell line ME OE, (*) one biological replicate, read-out: EC50 values): 5 ± 1 µM; EC50 [3, 16]: 4 ± 0.7 µM; EC50 [3, 17]: 4 ± 0.8 µM; EC50 ([3]; in Vero cells, cell line β5 OE rescue R1, (*) one biological replicate, read-out: EC50 values): 4 ± 0.6 µM; EC50 [3, 18]: 6 ± 0.6 µM; EC50 ([3]; read-out: EC50 values, in Vero cells, cell line β5 OE): 3 ± 0.3 µM; fold change versus WT ([3]; in Vero cells, cell line ME OE): 1 fold; fold change versus WT ([3]; in Vero cells, cell line RES 1): 2 fold; fold change versus WT ([3]; in Vero cells, cell line RES 5): 1 fold; fold change versus WT ([3]; in Vero cells, cell line Wild-type): 1 fold; fold change versus WT ([3]; in Vero cells, cell line β4 F24L/I29M): 2 fold; fold change versus WT ([3]; in Vero cells, cell line β5 D225N-OE): 1 fold; fold change versus WT ([3]; in Vero cells, cell line β5 OE): 1 fold; fold change versus WT ([3]; in Vero cells, cell line β5 OE rescue R1): 1 fold
Cc1nc(C)c(C(=O)Nc2ccc(F)c(-c3nc4ncc(-c5ccccn5)cn4n3)c2)o1 [GNF6702]	1.45	> 10	> 10	–	–	–	–	–	–	–	–	0.3 ± 0.02	> 10	> 10	10 ± 0.2	2 ± 0.3	> 10	> 10	refractory	16 ± 3	treated mice with no detectable parasites in blood, colon, or heart tissue ([4]; 10 mg kg−1 twice daily, after 4 weeks of immunosuppression): All but one of the eight; efficacy in a mouse model of infection ([4]; dosed twice daily at 10 mg kg−1): matched the efficacy of benznidazole; EC50 [3, 16]: 3 ± 0.4 µM; EC50 [3, 17]: 0.2 ± 0.03 µM; EC50 ([3]; in Vero cells, cell line β5 OE, read-out: EC50 values): 0.2 ± 0.1 µM; EC50 [3, 18]: > 1.5 µM; EC50 ([3]; read-out: EC50 values, in Vero cells, cell line β5 D225N-OE, (*) one biological replicate): > 5 µM
O=C(Cn1ccnc1[N+](=O)[O-])NCc1ccccc1 [benznidazole]	–	–	–	–	–	–	–	–	–	–	–	–	–	–	–	–	–	–	–	–	interruption or discontinuation of treatment due to severe toxic side effects [5]: ≤ 30 % of cases; individuals cured ([5]; prolonged treatment during the acute stage): up to 70%; outcome of modified treatment regimen in mouse models of infection ([4]; higher doses given in pulses over prolonged periods): sterile parasitological cure
CC1CS(=O)(=O)CCN1/N=C/c1ccc([N+](=O)[O-])o1 (stereo not drawn) [nifurtimox]	–	–	–	–	–	–	–	–	–	–	–	–	–	–	–	–	–	–	–	–	individuals cured ([5]; in vivo): up to 70%

From PMC8765320, “Identification of a Proteasome-Targeting Arylsulfonamide with Potential for the Treatment of Chagas’ Disease” (Antimicrobial Agents and Chemotherapy, 2022)
